Where “and” joins values, the source holds several entries; their conditions need not be identical. Equal entries are not always repeated.
System: APP/PS1 mice
Assay: lipid mediator-SPM profile of microglia isolated from treated mice (LC-MS/MS, Supplementary Table 2, Fig 4e-g)
Type: in vivo, mouse
Parameters: 15R-LXA4 level in microglia (sFig 4g) / RvE1 level in microglia (sFig 4g) / RvD1 level in microglia (sFig 4g): unit not given here
Protocol: Lipid mediators metabololipidomics were performed according to previously described procedures with minor modifications[4],[30]. To confirm the biosynthesis of lipid mediators by recombinant COX2 treated with N-AS or aspirin, 10 U of human recombinant COX2 (Cayman, 60122) was incubated in the presence of 500 μM aspirin (Sigma-Aldrich, A5376) or N-AS (Sigma-Aldrich, 01912) at 37 °C for 30 min. The enzyme was filtered with a Microcon column (Millipore) to remove unreacted aspirin or N-AS and was then resuspended in 0.1 M Tris-HCl (pH 8.0). Next, 500 μM phenol (Sigma-Aldrich) and 1 μM hematin-porcine (Sigma-Aldrich) were added immediately before incubation with 100 μM AA, EPA or DHA (Cayman) at 37 °C for 2 h, respectively. The mixtures were incubated with 30 U of human 5-LOX (Cayman, 60402) containing 2 mM CaCl2 (Sigma-Aldrich), 1 mM ATP (Amresco) and 5 μM 13-HpODE (Cayman) as activators. Also, to validate the importance of residue S565 for N-AS-acetylation of COX2 and production of SPMs, 10 U of the COX2 S565A mutant was used in the above-described method. In addition, to confirm SPM generation in neurons and microglia, these cells were treated with Aβ and sonicated in neuronal and glial culture medium. […] To evaluate the relationship of N-AS and SPM production in microglia, microglia were isolated from WT, APP/PS1, and APP/PS1 treated with N-AS mice at 9 months of age. The microglia were sonicated and resuspended in microglial culture medium. The supernatants were incubated with 100 μM AA, EPA, and DHA (Cayman) at 37 °C for 2 h. A 50 μl aliquot of the mixture from each cell lysate was added to a 250 μl aliquot of 1 ng ml^−1 of 15S-LXA4-d5 (internal standard, Cayman) methanol solution. After vortexing for 10 min and centrifuging at 15,974×g for 5 min, the supernatant was subjected to the analysis of the lipid mediators using an Agilent 6470 Triple Quad LC-MS/MS system (Agilent) coupled to an Agilent 1290 HPLC system. Chromatographic separation was achieved using a Synergi Polar RP (4 μm, 2.0 mm i.d. × 150 mm, Phenomenex). Analytes were eluted with a mobile phase consisting of water: formic acid (100:0.1 v/v) (phase A) and methanol: formic acid (100:0.1 v/v) (phase B) in gradient elution mode for 23 min a flow rate of 0.2 ml min^−1. The elution gradient was as follows: from 0 to 0.1 min the content of phase A was 37% and the content of phase A was decreased to 10% and maintained for 5.5 min. The content of phase A was increased back to 37% at 6.0 min and maintained for 23 min. Quantification was carried out using MRM in negative ionization mode and collision energy of 10–15 eV. The mass transition from Q1 to Q3 is shown in Supplementary Table 2. In this study, the peak areas for all components were automatically integrated using MassHunter B 06.00.
Adult neurons and microglia were isolated from the mice brain as previously described. In brief, the cortex of WT (1, 3, 5, or 9-months-old), APP/PS1 (1, 3, 5, or 9-months-old), APP/PS1 treated with N-AS (9-months-old) or APP/PS1 treated with aspirin (9-months-old) mice were minced in Hibernate A (Gibco)/B27 (Invitrogen) medium and dissociated using papain (Worthington) solution. After tissue trituration, cells were separated by Optiprep (Sigma-Aldrich) density gradient centrifugation. The purity of the fractionated neurons and microglia were acutely confirmed by neuronal (NeuN, mouse, 1:200, Millipore, MAB377) and microglial (Iba1, rabbit, 1:1000, Wako, 019-19941) markers and the isolated neurons and microglia were acutely analyzed for the acetylation assay and lipid mediators metabololipidomics.
Transgenic mouse lines over-expressing the hAPP695swe (APP) and presenilin-1M146V (PS1) mutations were originated from GlaxoSmithKline (Harlow, UK)[32] and maintained as described previously. We purchased 5×FAD mice from Jackson Labs (Stock number. 34840-JAX). Because APP/PS1 and 5xFAD mice show sex differences in disease progression, we used only male mice. […]

[1] = APP/PS1 + N-AS, individual samples

SMILES: CCCCCCCCCCCCC/C=C/[C@@H](O)[C@H](CO)NC(C)=O [N-AS, N-((2S,3R,E)-1,3-Dihydroxyoctadec-4-en-2-yl)acetamide]
- 15R-LXA4 level in microglia (sFig 4g) [1]: 4570 and 5879.36 and 4407.58 and 3923.74 and 3772.92 and 3755.88 and 4463.12 and 4253.3
- RvD1 level in microglia (sFig 4g) [1]: 122.239 and 113.373 and 105 and 174.655 and 77.0631 and 102.088 and 125.141 and 80.0045
- RvE1 level in microglia (sFig 4g) [1]: 121.276 and 201.615 and 123.367 and 132.221 and 152.593 and 109.936 and 221.33
- 11-HEPE in mouse microglia (APP/PS1/N-AS, mean±s.e.m., n=6): 8016.0±190.1 pg/1*106cell
- 11-HETE in mouse microglia (APP/PS1/N-AS, mean±s.e.m., n=6): 8870.6±557.1 pg/1*106cell
- 13-HDHA in mouse microglia (APP/PS1/N-AS, mean±s.e.m., n=6): 6824.5±237.7 pg/1*106cell
- 15-HEPE in mouse microglia (APP/PS1/N-AS, mean±s.e.m., n=6): 5286.6±214.8 pg/1*106cell
- 15-HETE in mouse microglia (APP/PS1/N-AS, mean±s.e.m., n=6): 33117.1±1929.6 pg/1*106cell
- 15R-LXA4 in mouse microglia (APP/PS1/N-AS, mean±s.e.m., n=6): 4378.2±241.8 pg/1*106cell
- 17-HDHA in mouse microglia (APP/PS1/N-AS, mean±s.e.m., n=6): 86224.5±10404.3 pg/1*106cell
- 18-HEPE in mouse microglia (APP/PS1/N-AS, mean±s.e.m., n=6): 31965.9±2934.1 pg/1*106cell
- AA in mouse microglia (APP/PS1/N-AS, mean±s.e.m., n=6): 39563.5±824.8 pg/1*106cell
- DHA in mouse microglia (APP/PS1/N-AS, mean±s.e.m., n=6): 37384.7±1351.7 pg/1*106cell
- EPA in mouse microglia (APP/PS1/N-AS, mean±s.e.m., n=6): 406.6±21.1 pg/1*106cell
- LTB4 in mouse microglia (APP/PS1/N-AS, mean±s.e.m., n=6): 876.5±71.9 pg/1*106cell
- PGE3/PGD3 in mouse microglia (APP/PS1/N-AS, mean±s.e.m., n=6): 2590.3±243.8 pg/1*106cell
- PGH2/PGE2 in mouse microglia (APP/PS1/N-AS, mean±s.e.m., n=6): 3862.0±266.4 pg/1*106cell
- RvD1 in mouse microglia (APP/PS1/N-AS, mean±s.e.m., n=6): 112.4±10.9 pg/1*106cell
- RvE1 in mouse microglia (APP/PS1/N-AS, mean±s.e.m., n=6): 151.8±16.3 pg/1*106cell
- TxB3 in mouse microglia (APP/PS1/N-AS, mean±s.e.m., n=6): 1209.9±70.0 pg/1*106cell

— article PMC7217877, “N-AS-triggered SPMs are direct regulators of microglia in a model of Alzheimer’s disease” (Nature Communications, 2020)
